Experimental findings from ChEMBL document CHEMBL4316623, “Phosphonodiamidate prodrugs of N-alkoxy analogs of a fosmidomycin surrogate as antimalarial and antitubercular agents” (Bioorg Med Chem Lett, 2019) are described below.

Data set [1] relates to Mycobacterium tuberculosis. Briefly: Antitubercular activity against Mycobacterium tuberculosis H37Ra ATCC 25177 harboring lux gene measured after 7 days by luminometric method. Type of data set: functional, organism-based. As to conditions: H37Ra ATCC 25177, 168 h.
Data set [2] is described as follows: Selectivity index, ratio of CC50 for human MRC5 cells to IC50 for Mycobacterium tuberculosis H37Ra ATCC 25177 harboring lux gene. It counts as toxicity. The note with it: read-out: Ratio CC50/IC50.

By IC50 is commonly meant the midpoint of a concentration-inhibition curve. Read a low IC50 as greater potency in that assay. Regarding `CCOC(=O)[C@H](CC(C)C)NP(=O)(CCCC(=O)N(C)OCc1ccc(Cl)cc1)N[C@@H](CC(C)C)C(=O)OCC`, in data set [1], the IC50 stood at 49 µM. The selectivity ratio in data set [2] was 0.37.

`NNC(=O)c1ccncc1` [ISONIAZID]: in data set [1], half-maximal inhibition (IC50) was put at 0.21 µM. This lies in the sub-micromolar range.

In data set [1], `CCOC(=O)[C@H](CC(C)C)NP(=O)(CCCC(=O)N(C)OCc1ccccc1)N[C@@H](CC(C)C)C(=O)OCC` showed an IC50 greater than 64 µM.

`CCOC(=O)[C@H](CC(C)C)NP(=O)(CCCC(=O)N(C)OCCCCc1ccccc1)N[C@@H](CC(C)C)C(=O)OCC` came in with an IC50 in data set [1] of 50.3 µM. Further, the selectivity ratio in data set [2] is 0.14.

In data set [1], `CCOC(=O)[C@H](CC(C)C)NP(=O)(CCCC(=O)N(C)OCc1ccc(C(C)C)cc1)N[C@@H](CC(C)C)C(=O)OCC` displayed an IC50 of 49.1 µM. In addition, the selectivity ratio in data set [2] was determined as 0.15.

`CCOC(=O)[C@H](CC(C)C)NP(=O)(CCCC(=O)N(C)O)N[C@@H](CC(C)C)C(=O)OCC` registered an IC50 in data set [1] of 29.4 µM. Also, the selectivity ratio in data set [2] is greater than 2.2.

In data set [1], `CCOC(=O)[C@H](CC(C)C)NP(=O)(CCCC(=O)N(C)OCc1ccc2ccccc2c1)N[C@@H](CC(C)C)C(=O)OCC` registered an IC50 of 48.2 µM. Besides, the selectivity ratio in data set [2] stood at 0.11.

The compound `CCOC(=O)[C@H](CC(C)C)NP(=O)(CCCC(=O)N(C)OCCCc1ccccc1)N[C@@H](CC(C)C)C(=O)OCC` returned an IC50 in data set [1] greater than 64 µM.

In turn, `CCOC(=O)[C@H](CC(C)C)NP(=O)(CCCC(=O)N(C)OCc1ccc(-c2ccccc2)cc1)N[C@@H](CC(C)C)C(=O)OCC` registered an IC50 in data set [1] of 35.2 µM. Further, the selectivity ratio in data set [2] turned out to be 0.17.
